From patent publication EP0419308A2, “Use of glutamic acid or gum arabic as anti-complement agent” (Chevance, Léon Georges, priority 1989, dated 1991)

Tested on: complément
Experiment: Anti-complement activity: inhibition of complement in fresh serum (technique of Chevance & Etievant / Rapp & Borsos)
Format: biochemical
Details: fresh serum diluted 1/40, 37°C, 45 minutes
From the text: L'activité anti-complément des substances visées par l'invention peut être mise en évidence suivant la technique décrite dans l'article de L-G-CHEVANCE et M. ETIEVANT "Etude d'un peptide (sel de magnésium de l' acide N-Acétyl (α-β)- Aspartyl-glutamique) mise en évidence de la protection contre les destructions cellulaires locales provoquées par l'activation in situ du complément" (J. Pharmacol. Paris 1986 n° 4, 676-685), ainsi que dans la parution de J. RAPP et T. BORSOS "Molecular basis of complement action" Appleton Century Crofts publ. 1970.
Après titrage du complément, on incube à 37°C pendant 45 minutes des prélèvements aliquots de 40 µl de sérum frais dilué au 1/40e, mélangés chacun respectivement à 40 µl de solutions aqueuses de concentrations croissantes de chaque substance analysée : acide L-glutamique, glutamate de sodium, gomme arabique et d'un mélange, à concentrations égales de gomme arabique et de glutamate de sodium.

SMILES	% inhibition (Concentration 0,05 %)	% inhibition (Concentration 0,5 %)	% inhibition (Concentration 0,25 %)	% inhibition (Concentration 1 %)	% inhibition (Concentration 1,5 %)	% inhibition (Concentration 2 %)	% inhibition (Concentration 0,062 %)	% inhibition (Concentration 0,125 %)
N[C@@H](CCC(=O)O)C(=O)O [Acide glutamique, acide L-glutamique]	0,033%	0,092%	0,000%	0,077%	0,369%	0,661%		
N[C@@H](CCC(=O)O)C(=O)O [Glutamate de sodium, L-glutamate de sodium]		0,175%	0,112%	0,216%			0,101%	0,116%
